# Test results taken from the supplement of paper PMC10307832.
# Key:
# Assay in all cases: relative viability (nuclei count vs DMSO), 5 days (fraction); higher = more cells survive
# Cabozantinib + OSI-027 = compound: COc1cc2nccc(Oc3ccc(NC(=O)C4(C(=O)Nc5ccc(F)cc5)CC4)cc3)c2cc1OC [Cabozantinib] + COc1cccc2cc(-c3nc([C@H]4CC[C@H](C(=O)O)CC4)n4ncnc(N)c34)[nH]c12 [OSI-027] (partner 0.5 µM)
# In short: (§1)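 Relative viability equals treated-well nuclei counts divided by vehicle-well nuclei counts. Counts came from 4× images of lung cancer cell lines grown in 1536-well plates for 5 days after pin-tool dosing on the day after seeding. Dosing used one drug alone or a fixed anchor-drug dose plus five library-drug doses (not always all listed) in √10 steps, and values are medians of duplicate plates.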
# Zosuquidar + Palbociclib = compound: O[C@@H](COc1cccc2ncccc12)CN1CCN([C@@H]2c3ccccc3[C@@H]3[C@H](c4ccccc42)C3(F)F)CC1 [Zosuquidar] + CC(=O)c1c(C)c2cnc(Nc3ccc(N4CCNCC4)cn3)nc2n(C2CCCC2)c1=O [Palbociclib] (partner 0.5 µM)
# In short: as §1
# Zosuquidar + Foretinib = compound: O[C@@H](COc1cccc2ncccc12)CN1CCN([C@@H]2c3ccccc3[C@@H]3[C@H](c4ccccc42)C3(F)F)CC1 [Zosuquidar] + COc1cc2c(Oc3ccc(NC(=O)C4(C(=O)Nc5ccc(F)cc5)CC4)cc3F)ccnc2cc1OCCCN1CCOCC1 [Foretinib] (partner 0.25 µM)
# In short: as §1
# Zosuquidar + Pictilisib = compound: O[C@@H](COc1cccc2ncccc12)CN1CCN([C@@H]2c3ccccc3[C@@H]3[C@H](c4ccccc42)C3(F)F)CC1 [Zosuquidar] + CS(=O)(=O)N1CCN(Cc2cc3nc(-c4cccc5[nH]ncc45)nc(N4CCOCC4)c3s2)CC1 [Pictilisib] (partner 1 µM)
# In short: as §1
cell line,measurement,setting,value
NCI-H1975,relative viability,Cabozantinib + OSI-027; first compound 0.02 µM,0.676
same,relative viability,Cabozantinib + OSI-027; first compound 0.06325 µM,0.763
same,relative viability,Cabozantinib + OSI-027; first compound 0.2 µM,0.668
same,relative viability,Cabozantinib + OSI-027; first compound 0.6325 µM,0.679
same,relative viability,Cabozantinib + OSI-027; first compound 2 µM,0.543
same,relative viability,Zosuquidar + Palbociclib; first compound 0.01 µM,0.587
same,relative viability,Zosuquidar + Palbociclib; first compound 0.03162 µM,0.475
same,relative viability,Zosuquidar + Palbociclib; first compound 0.1 µM,0.582
same,relative viability,Zosuquidar + Palbociclib; first compound 0.3162 µM,0.714
same,relative viability,Zosuquidar + Palbociclib; first compound 1 µM,0.531
same,relative viability,Zosuquidar + Foretinib; first compound 0.01 µM,0.959
same,relative viability,Zosuquidar + Foretinib; first compound 0.03162 µM,0.832
same,relative viability,Zosuquidar + Foretinib; first compound 0.1 µM,1.02
same,relative viability,Zosuquidar + Foretinib; first compound 0.3162 µM,0.952
same,relative viability,Zosuquidar + Foretinib; first compound 1 µM,1.02
same,relative viability,Zosuquidar + Pictilisib; first compound 0.01 µM,0.289
same,relative viability,Zosuquidar + Pictilisib; first compound 0.03162 µM,0.269
same,relative viability,Zosuquidar + Pictilisib; first compound 0.1 µM,0.292
same,relative viability,Zosuquidar + Pictilisib; first compound 0.3162 µM,0.332
same,relative viability,Zosuquidar + Pictilisib; first compound 1 µM,0.288
NCI-H1993,relative viability,Cabozantinib + OSI-027; first compound 0.02 µM,0.511
same,relative viability,Cabozantinib + OSI-027; first compound 0.06325 µM,0.528
same,relative viability,Cabozantinib + OSI-027; first compound 0.2 µM,0.569
same,relative viability,Cabozantinib + OSI-027; first compound 0.6325 µM,0.519
same,relative viability,Cabozantinib + OSI-027; first compound 2 µM,0.543
same,relative viability,Zosuquidar + Palbociclib; first compound 0.01 µM,0.653
same,relative viability,Zosuquidar + Palbociclib; first compound 0.03162 µM,0.603
same,relative viability,Zosuquidar + Palbociclib; first compound 0.3162 µM,0.617
same,relative viability,Zosuquidar + Palbociclib; first compound 1 µM,0.615
same,relative viability,Zosuquidar + Foretinib; first compound 0.01 µM,0.758
same,relative viability,Zosuquidar + Foretinib; first compound 0.03162 µM,0.724
same,relative viability,Zosuquidar + Foretinib; first compound 0.1 µM,0.701
same,relative viability,Zosuquidar + Foretinib; first compound 0.3162 µM,0.81
same,relative viability,Zosuquidar + Foretinib; first compound 1 µM,0.673
same,relative viability,Zosuquidar + Pictilisib; first compound 0.01 µM,0.766
same,relative viability,Zosuquidar + Pictilisib; first compound 0.03162 µM,0.913
same,relative viability,Zosuquidar + Pictilisib; first compound 0.1 µM,0.804
same,relative viability,Zosuquidar + Pictilisib; first compound 0.3162 µM,0.875
same,relative viability,Zosuquidar + Pictilisib; first compound 1 µM,0.644
NCI-H2009,relative viability,Cabozantinib + OSI-027; first compound 0.02 µM,0.642
same,relative viability,Cabozantinib + OSI-027; first compound 0.06325 µM,0.724
same,relative viability,Cabozantinib + OSI-027; first compound 0.2 µM,0.695
same,relative viability,Cabozantinib + OSI-027; first compound 0.6325 µM,0.674
same,relative viability,Cabozantinib + OSI-027; first compound 2 µM,0.496
same,relative viability,Zosuquidar + Palbociclib; first compound 0.01 µM,0.204
same,relative viability,Zosuquidar + Palbociclib; first compound 0.03162 µM,0.183
same,relative viability,Zosuquidar + Palbociclib; first compound 0.1 µM,0.154
same,relative viability,Zosuquidar + Palbociclib; first compound 0.3162 µM,0.251
same,relative viability,Zosuquidar + Palbociclib; first compound 1 µM,0.211
same,relative viability,Zosuquidar + Foretinib; first compound 0.01 µM,1.24
same,relative viability,Zosuquidar + Foretinib; first compound 0.03162 µM,1.2
same,relative viability,Zosuquidar + Foretinib; first compound 0.1 µM,1.24
same,relative viability,Zosuquidar + Foretinib; first compound 0.3162 µM,1.2
same,relative viability,Zosuquidar + Foretinib; first compound 1 µM,1.23
same,relative viability,Zosuquidar + Pictilisib; first compound 0.01 µM,0.837
same,relative viability,Zosuquidar + Pictilisib; first compound 0.03162 µM,0.88
same,relative viability,Zosuquidar + Pictilisib; first compound 0.1 µM,0.677
same,relative viability,Zosuquidar + Pictilisib; first compound 0.3162 µM,1.02
same,relative viability,Zosuquidar + Pictilisib; first compound 1 µM,0.822
NCI-H2023,relative viability,Cabozantinib + OSI-027; first compound 0.02 µM,0.308
same,relative viability,Cabozantinib + OSI-027; first compound 0.06325 µM,0.39
same,relative viability,Cabozantinib + OSI-027; first compound 0.2 µM,0.322
same,relative viability,Cabozantinib + OSI-027; first compound 0.6325 µM,0.327
same,relative viability,Cabozantinib + OSI-027; first compound 2 µM,0.235
same,relative viability,Zosuquidar + Palbociclib; first compound 0.01 µM,0.364
same,relative viability,Zosuquidar + Palbociclib; first compound 0.03162 µM,0.36
same,relative viability,Zosuquidar + Palbociclib; first compound 0.1 µM,0.418
same,relative viability,Zosuquidar + Palbociclib; first compound 0.3162 µM,0.37
same,relative viability,Zosuquidar + Palbociclib; first compound 1 µM,0.313
same,relative viability,Zosuquidar + Foretinib; first compound 0.01 µM,0.936
same,relative viability,Zosuquidar + Foretinib; first compound 0.03162 µM,0.759
same,relative viability,Zosuquidar + Foretinib; first compound 0.1 µM,0.689
same,relative viability,Zosuquidar + Foretinib; first compound 0.3162 µM,0.998
same,relative viability,Zosuquidar + Foretinib; first compound 1 µM,0.99
same,relative viability,Zosuquidar + Pictilisib; first compound 0.01 µM,0.235
same,relative viability,Zosuquidar + Pictilisib; first compound 0.03162 µM,0.235
same,relative viability,Zosuquidar + Pictilisib; first compound 0.1 µM,0.171
same,relative viability,Zosuquidar + Pictilisib; first compound 0.3162 µM,0.324
same,relative viability,Zosuquidar + Pictilisib; first compound 1 µM,0.271
NCI-H2085,relative viability,Cabozantinib + OSI-027; first compound 0.02 µM,0.817
same,relative viability,Cabozantinib + OSI-027; first compound 0.06325 µM,0.756
same,relative viability,Cabozantinib + OSI-027; first compound 0.2 µM,0.661
same,relative viability,Cabozantinib + OSI-027; first compound 0.6325 µM,0.66
same,relative viability,Cabozantinib + OSI-027; first compound 2 µM,0.642
same,relative viability,Zosuquidar + Palbociclib; first compound 0.01 µM,0.5
same,relative viability,Zosuquidar + Palbociclib; first compound 0.03162 µM,0.469
same,relative viability,Zosuquidar + Palbociclib; first compound 0.3162 µM,0.508
same,relative viability,Zosuquidar + Palbociclib; first compound 1 µM,0.484
same,relative viability,Zosuquidar + Foretinib; first compound 0.01 µM,0.855
same,relative viability,Zosuquidar + Foretinib; first compound 0.03162 µM,1.02
same,relative viability,Zosuquidar + Foretinib; first compound 0.1 µM,0.837
same,relative viability,Zosuquidar + Foretinib; first compound 0.3162 µM,1.01
same,relative viability,Zosuquidar + Foretinib; first compound 1 µM,0.981
same,relative viability,Zosuquidar + Pictilisib; first compound 0.01 µM,0.446
same,relative viability,Zosuquidar + Pictilisib; first compound 0.03162 µM,0.543
same,relative viability,Zosuquidar + Pictilisib; first compound 0.1 µM,0.441
same,relative viability,Zosuquidar + Pictilisib; first compound 0.3162 µM,0.474
same,relative viability,Zosuquidar + Pictilisib; first compound 1 µM,0.478
NCI-H2087,relative viability,Cabozantinib + OSI-027; first compound 0.02 µM,0.364
same,relative viability,Cabozantinib + OSI-027; first compound 0.06325 µM,0.549
same,relative viability,Cabozantinib + OSI-027; first compound 0.2 µM,0.637
same,relative viability,Cabozantinib + OSI-027; first compound 0.6325 µM,0.562
same,relative viability,Cabozantinib + OSI-027; first compound 2 µM,0.633
same,relative viability,Zosuquidar + Palbociclib; first compound 0.01 µM,0.19
same,relative viability,Zosuquidar + Palbociclib; first compound 0.03162 µM,0.25
same,relative viability,Zosuquidar + Palbociclib; first compound 0.1 µM,0.243
same,relative viability,Zosuquidar + Palbociclib; first compound 0.3162 µM,0.205
same,relative viability,Zosuquidar + Palbociclib; first compound 1 µM,0.249
same,relative viability,Zosuquidar + Foretinib; first compound 0.01 µM,1
same,relative viability,Zosuquidar + Foretinib; first compound 0.1 µM,0.992
same,relative viability,Zosuquidar + Foretinib; first compound 0.3162 µM,1.21
same,relative viability,Zosuquidar + Foretinib; first compound 1 µM,1.12
same,relative viability,Zosuquidar + Pictilisib; first compound 0.01 µM,0.894
same,relative viability,Zosuquidar + Pictilisib; first compound 0.03162 µM,0.844
same,relative viability,Zosuquidar + Pictilisib; first compound 0.1 µM,0.791
same,relative viability,Zosuquidar + Pictilisib; first compound 0.3162 µM,1
same,relative viability,Zosuquidar + Pictilisib; first compound 1 µM,0.853
NCI-H2126,relative viability,Cabozantinib + OSI-027; first compound 0.06325 µM,0.798
same,relative viability,Cabozantinib + OSI-027; first compound 0.2 µM,0.706
same,relative viability,Cabozantinib + OSI-027; first compound 0.6325 µM,0.71
same,relative viability,Cabozantinib + OSI-027; first compound 2 µM,0.884
same,relative viability,Zosuquidar + Palbociclib; first compound 0.01 µM,0.349
same,relative viability,Zosuquidar + Palbociclib; first compound 0.03162 µM,0.339
same,relative viability,Zosuquidar + Palbociclib; first compound 0.1 µM,0.351
same,relative viability,Zosuquidar + Palbociclib; first compound 0.3162 µM,0.341
same,relative viability,Zosuquidar + Palbociclib; first compound 1 µM,0.351
same,relative viability,Zosuquidar + Foretinib; first compound 0.01 µM,1.17
same,relative viability,Zosuquidar + Foretinib; first compound 0.03162 µM,1.09
same,relative viability,Zosuquidar + Foretinib; first compound 0.3162 µM,1.18
same,relative viability,Zosuquidar + Foretinib; first compound 1 µM,1.23
same,relative viability,Zosuquidar + Pictilisib; first compound 0.01 µM,0.479
same,relative viability,Zosuquidar + Pictilisib; first compound 0.03162 µM,0.505
same,relative viability,Zosuquidar + Pictilisib; first compound 0.1 µM,0.404
same,relative viability,Zosuquidar + Pictilisib; first compound 0.3162 µM,0.494
same,relative viability,Zosuquidar + Pictilisib; first compound 1 µM,0.539
NCI-H2170,relative viability,Cabozantinib + OSI-027; first compound 0.02 µM,0.724
same,relative viability,Cabozantinib + OSI-027; first compound 0.06325 µM,0.752
same,relative viability,Cabozantinib + OSI-027; first compound 0.2 µM,0.608
same,relative viability,Cabozantinib + OSI-027; first compound 0.6325 µM,0.732
same,relative viability,Cabozantinib + OSI-027; first compound 2 µM,0.731
same,relative viability,Zosuquidar + Palbociclib; first compound 0.01 µM,0.364
same,relative viability,Zosuquidar + Palbociclib; first compound 0.03162 µM,0.42
same,relative viability,Zosuquidar + Palbociclib; first compound 0.1 µM,0.397
same,relative viability,Zosuquidar + Palbociclib; first compound 0.3162 µM,0.426
same,relative viability,Zosuquidar + Palbociclib; first compound 1 µM,0.379
same,relative viability,Zosuquidar + Foretinib; first compound 0.01 µM,0.979
same,relative viability,Zosuquidar + Foretinib; first compound 0.03162 µM,1.02
same,relative viability,Zosuquidar + Foretinib; first compound 0.1 µM,0.993
same,relative viability,Zosuquidar + Foretinib; first compound 0.3162 µM,1.02
same,relative viability,Zosuquidar + Foretinib; first compound 1 µM,1.02
same,relative viability,Zosuquidar + Pictilisib; first compound 0.01 µM,0.295
same,relative viability,Zosuquidar + Pictilisib; first compound 0.03162 µM,0.266
same,relative viability,Zosuquidar + Pictilisib; first compound 0.1 µM,0.312
same,relative viability,Zosuquidar + Pictilisib; first compound 0.3162 µM,0.345
same,relative viability,Zosuquidar + Pictilisib; first compound 1 µM,0.281
